This is an account of results in EP2982368A1, “Small molecule compounds displacing focal adhesion core components” (Universität Konstanz, priority 2014, dated 2016).

Test [1] addresses T1, Kinase domain of human FAK (Homo sapiens, UniProt Q05397, P410G).
T1 construct: Kinase domain of human FAK (aa 410-689, hFAK-KD) was expressed; 6xHis (N); made in house; host or cells: Sf9 insect cells (baculovirus, pVL1392)
Put plainly: ELISA-based in vitro kinase assay. Type of test: biochemical. The conditions noted are these: poly-Glu-Tyr substrate, 1 h at 30°C. On the technique in general: ELISA stands for enzyme-linked immunosorbent assay.
Method: Kinase domain of human FAK (aa 410-689, hFAK-KD) was expressed with an amino-terminal 6xHis-tag and a carboxy-terminal Nef epitope-tag. FAK residue 410 was changed from proline to glycine. Expression of the fusion protein was performed in Sf9 insect cells using the pVL1392 transfer vector and the BacuIoGold Transfection Kit (BD Biosciences, San Diego, USA). Cells were lysed in Sf9 lysis buffer (0.33% Tween20, 1 mM EDTA, 500 mM NaCl, 100 µM PMSF, 1 mM β-Mercaptoethanol in 25 mM TrisHCl, pH 7.5) for 20 min at 4°C. Subsequently, the lysate was cleared by centrifugation and hFAK-KD was purified from the soluble fraction under native conditions by FPLC using a HisTrapFFcrude 1 mL column (GE Healthcare, Munich, Germany)
A microtiter plate was coated with 2 µg/well of poly(Glu:Tyr) (4:1) copolymer (Sigma-Aldrich, Steinheim, Germany) as artificial FAK substrate and blocked with 2% BSA in PBS with 0.01% Tween20. Purified hFAK-KD together with 100 µM ATP were added in kinase buffer (125 mM NaCl, 48 mM MgCl2, 50 mM HEPES, pH 7.5) in presence of various concentrations of test compounds and incubated for 1 h at 30°C. The reaction was stopped by the addition of EDTA and wells were extensively washed with 0.05% Tween20 in PBS. Phosphorylated substrate was detected by monoclonal anti-phosphotyrosine antibody followed by peroxidasecoupled goat anti-mouse antibody. […] The absorbance was measured at 450 nm.

A further test concerns the target T2, FAK (Mus musculus, UniProt P34152).
T2 construct: expressed in transfected cells; host or cells: FAK-/- (p53-/-) mouse embryonic fibroblasts stably re-expressing GFP-FAK
Put plainly: Reversibility of FAK displacement after compound washout. Type of test: cell-based. The conditions noted are these: 4 µM for 1 h. The method, then: In order to analyze whether FAK or its binding partner paxillin are degraded after displacement, serum-starved GFP-FAK MEFs were stimulated with normal growth medium in presence of increasing concentrations of Mb31. After 30 min cells were lysed and protein levels were determined by immunoblotting. […] In line with this, in vitro activity of purified FAK kinase domain was not altered in presence of Mb31 (Figure 8). […] Considering, that paxillin and FAK are not degraded in Mb31 treated GFP-FAK MEFs the inventors further investigated whether FAK displacement is reversible. GFP-FAK MEFs were seeded on fibronectin and treated with 4 µM Mb31 for 1 h. Following compound washout, cells were incubated for 1 h and fixed. […] To strengthen the hypothesis of FAK relocalization, in a second approach de novo protein synthesis was blocked with cycloheximide. Again, FAK containing focal adhesions could be clearly identified in the cell periphery.
MEFs were seeded on fibronectin fragment (4 µg/ml in PBS) in multi-well plates (Greiner Bio-One) and incubated for 4 h to allow spreading. Cells were fixed and permeabilized with MeOH at -20°C after pre-fixation with 4% paraformaldehyde. […] Cells were washed again with PBS to remove excess antibodies and were imaged using a Leica AF6000LX fluorescence microscope. […]

The next test has as its system GFP-FAK MEFs. Nature of the test: Cell migration assay (single cell tracking, serum-stimulated). Type of test: cell-based, mouse. The conditions noted are these: for cell velocity: serum-stimulated. Here is the method:
Image J was used to automatically quantify FAK-containing focal adhesions due to local maxima of fluorescence intensity in the GFP-channel (5 to 70 pixel). The number of cells was automatically counted in the Hoechst channel. To test reproducibility of the system 40 control wells were quantified wherein four positions for each well were imaged. […] GFP-FAK mouse embryonic fibroblasts were seeded on fibronectin and incubated for 1 h with the indicated concentrations of the small compounds, respectively. […] GFP-FAK mouse embryonic fibroblasts were seeded on fibronectin and serum-starved overnight. The indicated concentrations of Mb31 were applied for 30 min. Cells were lysed and analyzed for paxillin and FAK protein level as well as FAK Tyr397 phosphorylation. […] The purified kinase domain of FAK was incubated with increasing amounts of Mb31 for 1 h at 30°C together with poly-Glu-Tyr as a FAK substrate. […] Serum-starved GFP-FAK mouse embryonic fibroblasts were stimulated with normal growth medium and incubated for 5 h with the indicated concentrations of the small molecule compounds, respectively. Cell viability was assessed by MTT assay. […] GFP-FAK MEFs were seeded on fibronectin and serum-starved overnight. Migration was stimulated by replacing the medium with normal growth medium. Migration of single cells was tracked for 8 h in 30 min intervals. Migration was recorded from cells that were cultured without serum (A), with serum (B) or with serum in the presence of 3 µM Mb31 (C). […] (A) GFP-FAK MEFs were seeded and serum-starved as in Figure 10. Cell migration was stimulated with normal growth medium and single cells were tracked for 5 h. […] Mouse embryonic fibroblasts (MEFs) were transfected with talin-mCherry and talin dynamics analyzed in focal adhesions using fluorescence recovery after photobleaching (FRAP). […] (C) Wound closure was microscopically analyzed and evaluated using ImageJ software.
To further determine whether Mb31 interferes with cell motility, GFP-FAK MEFs were serum-stimulated and migration was quantified on a single cell basis (Figures 11 and 12). […]

T2 sequence (P34152 whole entry): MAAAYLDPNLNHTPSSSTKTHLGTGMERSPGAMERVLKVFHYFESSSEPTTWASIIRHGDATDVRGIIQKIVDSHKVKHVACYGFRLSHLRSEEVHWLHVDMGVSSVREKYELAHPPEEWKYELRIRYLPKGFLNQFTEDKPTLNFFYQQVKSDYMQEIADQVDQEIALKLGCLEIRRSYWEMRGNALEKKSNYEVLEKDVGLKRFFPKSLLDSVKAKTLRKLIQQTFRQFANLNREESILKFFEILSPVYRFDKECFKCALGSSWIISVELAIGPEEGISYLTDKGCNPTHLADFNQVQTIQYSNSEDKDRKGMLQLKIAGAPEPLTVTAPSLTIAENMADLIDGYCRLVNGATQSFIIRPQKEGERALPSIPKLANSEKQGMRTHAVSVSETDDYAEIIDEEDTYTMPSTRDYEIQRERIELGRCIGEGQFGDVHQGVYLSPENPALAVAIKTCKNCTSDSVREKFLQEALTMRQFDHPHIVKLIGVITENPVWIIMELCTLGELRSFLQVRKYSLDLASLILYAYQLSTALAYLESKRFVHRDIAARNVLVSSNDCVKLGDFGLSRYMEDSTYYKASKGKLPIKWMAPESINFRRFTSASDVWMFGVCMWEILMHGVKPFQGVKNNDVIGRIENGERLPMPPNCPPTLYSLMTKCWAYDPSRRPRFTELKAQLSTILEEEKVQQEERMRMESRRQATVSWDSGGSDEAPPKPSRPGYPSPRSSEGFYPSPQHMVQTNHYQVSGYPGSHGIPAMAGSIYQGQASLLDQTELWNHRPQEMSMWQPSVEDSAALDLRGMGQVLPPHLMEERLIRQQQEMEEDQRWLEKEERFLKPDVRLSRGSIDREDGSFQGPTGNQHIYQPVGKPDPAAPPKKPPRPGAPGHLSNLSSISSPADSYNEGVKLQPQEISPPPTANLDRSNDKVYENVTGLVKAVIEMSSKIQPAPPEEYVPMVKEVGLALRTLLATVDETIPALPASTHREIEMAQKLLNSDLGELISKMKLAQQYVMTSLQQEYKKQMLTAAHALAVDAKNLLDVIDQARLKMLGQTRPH
T1 sequence (Q05397 410-689 P410G): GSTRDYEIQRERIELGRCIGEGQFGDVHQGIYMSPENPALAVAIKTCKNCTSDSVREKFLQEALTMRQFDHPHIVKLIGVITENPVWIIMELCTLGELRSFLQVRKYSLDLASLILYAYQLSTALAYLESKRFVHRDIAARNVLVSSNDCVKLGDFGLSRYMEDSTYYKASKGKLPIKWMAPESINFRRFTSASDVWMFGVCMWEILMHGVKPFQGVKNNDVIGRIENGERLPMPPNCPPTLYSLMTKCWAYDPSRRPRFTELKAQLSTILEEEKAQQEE

`O=[N+]([O-])C=Cc1cc(Br)cs1` [FootLocker 1, 4-bromo-2-(2-nitrovinyl)thiophene]: the “in vitro activity of purified FAK kinase domain (FAK substrate phosphorylation)” value in test [1] was “not altered”. Besides, on FAK (before washout), the “FAK displacement in treated cells” value is listed as “completely displaced”. Further, the “FAK localization after compound washout” value at FAK (washout, 1 h incubation) is recorded as “FAK relocalized to focal adhesions”. The “cell velocity after treatment of migrating cells” value in the test with GFP-FAK MEFs (added after 5 h tracking, 3 µM or more, further 5 h) is given as 0.11 µm/min. Moreover, the cell velocity in the test with GFP-FAK MEFs (2 µM) worked out at 0.11 µm/min; with GFP-FAK MEFs (3 µM), 0.07 µm/min.
